23 compounds from patent US20150299188A1, “HETEROCYCLIC COMPOUND” (priority 2012, published 2015) can be followed below.

Each structure is given as a SMILES string.

In the assay the test system is FLAP (5-lipoxygenase activating protein). In words: In vitro binding test: displacement of [3H]-7-chloro-3-(5-((3-fluoropyridin-2-yl)methoxy)-2-methylphenyl)-3,4-dihydroquinazolin-2(1H)-one from Sf9 microsome fractions. The arrangement: species or system human and mouse. As to conditions: Sf9 microsome fractions expressing FLAP; 100% = radioligand binding with 10 μM sodium 3-(3-(tert-butylsulfanyl)-1-(4-chlorobenzyl)-5-isopropyl-1H-indol-2-yl)-2,2-dimethylpropanoate, 0% = DMSO; test compound concentration not given. The gist of the method:
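Sf9 microsomes expressing human or mouse FLAP (2 μg/mL) preincubated with compound 10 min at room temperature, then 120 nM tritiated quinazolinone ligand added for 60 min; buffer 100 mM Tris-HCl pH 7.5 with NaCl, EDTA, DTT, glycerol, Tween20. Bound ligand filtered and counted by scintillation; 10 μM indole propanoate defines 100% inhibition, DMSO 0%.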
For orientation: Loss of bound radioactivity is the signal in a displacement assay; it reports binding, not function.
For the compound `Cc1ccc(OCc2ncccc2F)cc1N1Cc2c(Cl)cccc2N(CC2CC2)C1=O` [Example 284, 5-chloro-1-(cyclopropylmethyl)-3-(5-((3-fluoropyridin-2-yl)methoxy)-2-methylphenyl)-3,4-dihydroquinazolin-2(1H)-one], the “inhibitory rate (%)” value amounted to 105%.
Consider `Cc1ccc(OCc2ncccc2F)cc1N1Cc2c(Cl)cccc2N(CC(=O)O)C1=O` [Example 285, (5-chloro-3-(5-((3-fluoropyridin-2-yl)methoxy)-2-methylphenyl)-2-oxo-3,4-dihydroquinazolin-1(2H)-yl)acetic acid], for which the “inhibitory rate (%)” value is recorded as 102%.
To `Cc1ccc(OCc2ncccc2F)cc1N1Cc2c(Cl)cccc2N(CC(N)=O)C1=O` [Example 286, 2-(5-chloro-3-(5-((3-fluoropyridin-2-yl)methoxy)-2-methylphenyl)-2-oxo-3,4-dihydroquinazolin-1(2H)-yl)acetamide] belongs 112%; to `O=C1Nc2cccc(Cl)c2CN1c1cc(OCc2ncccc2F)c(F)cc1Cl` [Example 287, 5-chloro-3-(2-chloro-4-fluoro-5-((3-fluoropyridin-2-yl)methoxy)phenyl)-3,4-dihydroquinazolin-2(1H)-one], 95%.
With `Cc1ccc(OCc2ncccc2F)cc1N1Cc2ccc(C(=O)N3CCOCC3)cc2NC1=O` [Example 288, 3-(5-((3-fluoropyridin-2-yl)methoxy)-2-methylphenyl)-7-(morpholin-4-ylcarbonyl)-3,4-dihydroquinazolin-2(1H)-one] the figure was 104%; with `CC(C)(O)c1ccc2c(c1)NC(=O)N(c1cc(OCc3c(F)cccc3F)ccc1CC1CCCCC1)C2` [Example 289, 3-(2-(cyclohexylmethyl)-5-((2,6-difluorobenzyl)oxy)phenyl)-7-(2-hydroxypropan-2-yl)-3,4-dihydroquinazolin-2(1H)-one], 80%; with `O=C1Nc2cc(CO)ccc2CN1c1cc(OCc2c(F)cccc2F)ccc1CC1CCCCC1` [Example 290, 3-(2-(cyclohexylmethyl)-5-((2,6-difluorobenzyl)oxy)phenyl)-7-(hydroxymethyl)-3,4-dihydroquinazolin-2(1H)-one], 97%.
With `Cc1ccc(OCc2ncccc2F)cc1N1Cc2c(Cl)cccc2N(C)C1=O` [Example 291, 5-chloro-3-(5-((3-fluoropyridin-2-yl)methoxy)-2-methylphenyl)-1-methyl-3,4-dihydroquinazolin-2(1H)-one] the figure was 94%; with `Cc1ccc(OCc2ncccc2F)cc1N1Cc2c(Cl)cc(C(=O)O)cc2NC1=O` [Example 292, 5-chloro-3-(5-((3-fluoropyridin-2-yl)methoxy)-2-methylphenyl)-2-oxo-1,2,3,4-tetrahydroquinazoline-7-carboxylic acid], 107%.
As for `CC(C)(C)Cc1ccc(OCc2c(F)cccc2F)cc1N1Cc2ccc(C(C)(C)O)cc2NC1=O` [Example 293, 3-(5-((2,6-difluorobenzyl)oxy)-2-(2,2-dimethylpropyl)phenyl)-7-(2-hydroxypropan-2-yl)-3,4-dihydroquinazolin-2(1H)-one], the “inhibitory rate (%)” value amounted to 84%.
Regarding `CC(C)(C)Cc1ccc(OCc2c(F)cccc2F)cc1N1Cc2ccc(CO)cc2NC1=O` [Example 294, 3-(5-((2,6-difluorobenzyl)oxy)-2-(2,2-dimethylpropyl)phenyl)-7-(hydroxymethyl)-3,4-dihydroquinazolin-2(1H)-one], the “inhibitory rate (%)” value is recorded as 65%.
To `COC(=O)c1ccccc1CN1C(=O)N(c2cc(OCc3ncccc3F)ccc2C)Cc2c(Cl)cccc21` [Example 295, methyl 2-((5-chloro-3-(5-((3-fluoropyridin-2-yl)methoxy)-2-methylphenyl)-2-oxo-3,4-dihydroquinazolin-1(2H)-yl)methyl)benzoate] belongs 102%; to `Cc1ccc(OCc2ncccc2F)cc1N1Cc2c(Cl)cccc2N(Cc2ccccc2C(=O)O)C1=O` [Example 296, 2-((5-chloro-3-(5-((3-fluoropyridin-2-yl)methoxy)-2-methylphenyl)-2-oxo-3,4-dihydroquinazolin-1(2H)-yl)methyl)benzoic acid], 95%; to `Cc1ccc(OCc2ncccc2F)cc1N1Cc2c(cccc2C(F)(F)F)NC1=O` [Example 297, 3-(5-((3-fluoropyridin-2-yl)methoxy)-2-methylphenyl)-5-(trifluoromethyl)-3,4-dihydroquinazolin-2(1H)-one], 106%.
With `Cc1ccc(OCc2ncccc2F)cc1N1Cc2c(C#N)cccc2NC1=O` [Example 298, 3-(5-((3-fluoropyridin-2-yl)methoxy)-2-methylphenyl)-2-oxo-1,2,3,4-tetrahydroquinazoline-5-carbonitrile] the figure was 104%; with `Cc1ccc(OCc2ncccc2F)cc1N1Cc2c(Cl)cc(C(=O)NC3CC3)cc2NC1=O` [Example 299, 5-chloro-N-cyclopropyl-3-(5-((3-fluoropyridin-2-yl)methoxy)-2-methylphenyl)-2-oxo-1,2,3,4-tetrahydroquinazoline-7-carboxamide], 113%; with `O=C1Nc2ccccc2CN1c1cc(OCc2ncccc2F)ccc1F` [Example 300, 3-(2-fluoro-5-((3-fluoropyridin-2-yl)methoxy)phenyl)-3,4-dihydroquinazolin-2(1H)-one], 105%.
Regarding `O=C1Nc2cc(Br)ccc2CN1c1cc(OCc2ncccc2F)ccc1C(F)(F)F` [Example 301, 7-bromo-3-(5-((3-fluoropyridin-2-yl)methoxy)-2-(trifluoromethyl)phenyl)-3,4-dihydroquinazolin-2(1H)-one], the “inhibitory rate (%)” value stood at 104%.
With `Cc1ccc(OCc2ncccc2F)cc1N1Cc2ccc(C(=O)N(C)C3CC3)cc2NC1=O` [Example 302, N-cyclopropyl-3-(5-((3-fluoropyridin-2-yl)methoxy)-2-methylphenyl)-N-methyl-2-oxo-1,2,3,4-tetrahydroquinazoline-7-carboxamide] the figure was 104%; with `Cc1ccc(OCc2ncccc2F)cc1N1Cc2ccc(C(=O)NCC(F)(F)F)cc2NC1=O` [Example 303, 3-(5-((3-fluoropyridin-2-yl)methoxy)-2-methylphenyl)-2-oxo-N-(2,2,2-trifluoroethyl)-1,2,3,4-tetrahydroquinazoline-7-carboxamide], 108%; with `Cc1cc(I)c(OCc2ncccc2F)cc1N1Cc2ccc(Cl)cc2NC1=O` [Example 304, 7-chloro-3-(5-((3-fluoropyridin-2-yl)methoxy)-4-iodo-2-methylphenyl)-3,4-dihydroquinazolin-2(1H)-one], 64%.
To `Cc1ccc(OCc2ncccc2F)cc1N1Cc2c(O)cccc2NC1=O` [Example 305, 3-(5-((3-fluoropyridin-2-yl)methoxy)-2-methylphenyl)-5-hydroxy-3,4-dihydroquinazolin-2(1H)-one] belongs 103%; to `O=C1Nc2ccccc2CN1c1cc(OCc2ncccc2F)ccc1CN1CCCC1` [Example 306, 3-(5-((3-fluoropyridin-2-yl)methoxy)-2-(pyrrolidin-1-ylmethyl)phenyl)-3,4-dihydroquinazolin-2(1H)-one], 74%.
